Laboratory results taken from patent US20150148235A1, “HERBICIDE-RESISTANT SUNFLOWER PLANTS WITH MULTIPLE HERBICIDE RESISTANT ALLELES OF AHASL1 AND METHODS OF USE” (NIDERA S.A., priority 2013, published 2015).

Tests used:
[1] = tested on: sunflower GM40 (A122T), HA425 (A205V) and progeny; format: in vivo, Helianthus annuus
Procedure: To determine the phenotypic interactions of the resistance gene A122T and the Imr1 gene (A205V) already described in IMI-R sunflowers (HA425), F1, F2 and BC1F1 populations from the cross GM40 (A122T)/HA425 (A205V) were evaluated at two herbicide applications rates (80 and 320 g. a. i. Ha^−1 of imazapyr). […] When F2 and BC1F1 populations were scored at the higher herbicide rate (320 g. a. i. Ha-1), which discriminates both parents, segregation for susceptibility was observed. Only two phenotypic classes could be detected, a resistant class with plants without any injury or slight symptoms and a susceptible phenotype that was killed like the control line HA425.

[2] = tested on: AHAS enzyme, A122T Heterozygous sunflower; test: AHAS enzyme activity assay, leaf extract; format: biochemical, Helianthus annuus; details: A122T heterozygous hybrid (Set 2)
Procedure: (§1) Twelve greenhouse grown sunflower plants from each of the lines depicted in Table 21 were bulked and subjected to an AHAS enzyme activity assay via the method of Singh et al. (1988) Anal. Biochem. 171:173-179. Each activity assay was repeated twice. Due to the large number of samples, the experiment was split into two sets (Table 21).
(§2) Young, actively growing leaves, from four week old plantlets, were ground in a mortar and pestle with liquid N2 and extracted with a buffer composed of 100 mM Pyruvate, 200 mM KH2PO4, 20 mM MgCl2, 2 mM thiamine pyrophosphate and […]. Plant extracts were then spun through a 10 mL Zeba TM desalt spin column (Pierce #89893) as per the manufacturer's recommendation. The inhibition assay was performed as described by Singh et al. (1988) Anal. Biochem. 171:173-179. Assays were conducted in a 96-well format. Fifty μl of inhibitor was added to each well containing 50 μl of soluble protein extract to give final concentrations of 0.78, 1.56, 3.125, 6.25, 12.5, 25, 50 and 100 μM imazamox or 0.78, 1.56, 3.125, 6.25, 12.5, 25, 50 and 100 μM imazapyr. Zero herbicide controls were also included for each line. Reactions were processed as outlined by Singh et al. (1988) Anal. Biochem. 171:173-179. Absorbance was measured at 530 nm. AHAS activity, expressed as the mean of the absorbance values for each treatment, was presented as a percentage of the mean of the zero-herbicide controls.

[3] = tested on: AHAS enzyme, WT sunflower line B7; test: AHAS enzyme activity assay, leaf extract; format: biochemical, Helianthus annuus; details: 100 μM
Procedure: as §1, §2

| SMILES | susceptible plants in F2 and BC1F1 populations of GM40 (A122T)/HA425 (A205V) ([1]; 80 g a.i./ha (1x, lower rate)) | response of control line HA425 ([1]; HA425 (A205V), 320 g a.i./ha) | AHAS activity ([2]; 50 μM) [%] | AHAS activity ([2]; 100 μM) [%] | AHAS activity ([3]; WT line B7, Set 1) | AHAS activity ([3]; WT line B7, Set 2) |
| --- | --- | --- | --- | --- | --- | --- |
| CC(C)C1(C)N=C(c2ncccc2C(=O)O)NC1=O (stereo not drawn) [imazapyr] | No susceptible plants were observed | killed | – | – | – | – |
| COCc1cnc(C2=NC(C)(C(C)C)C(=O)N2)c(C(=O)O)c1 (stereo not drawn) [imazamox] | – | – | 30 | 30 | 17 % relative to the untreated co | 11 % relative to the untreated co |
